From patent US7118895B2, “Process for producing aglycon by using diglycosidase and flavor-improved food containing the aglycon and converting agent to be used in the process” (Amano Enzyme Inc., priority 2000, dated 2006)

System: Crude diglycosidase
Assay: Examination of pH in the conversion into isoflavone aglycons by diglycosidase using soybean materials
Assay type: biochemical, Penicillium multicolor IAM7153
Parameters: Decomposition efficiency of genistin family in soymilk / Decomposition efficiency of genistin family in defatted soybean / Decomposition efficiency of daidzin family in defatted soybean: concentration or dose not given beside the values
Conditions: for Decomposition efficiency of daidzin family in roasted soy flour: 55° C.
Experimental: A substrate solution of 450 μL was prepared by suspending 50 mg of each soybean material (roasted soy flour (manufactured by Fuji Shokuryo K.K.), soymilk (manufactured by Gitoh Shokuhin K.K.), defatted soybean (manufactured by Fuji Seiyu K.K.), concentrated soybean protein (manufactured by Fuji Seiyu K.K.)), and adjusting the pH to 2 to 11 with hydrochloric acid or sodium hydroxide. Each enzyme solution of pH 2–11 wherein diglycosidase activity of crude diglycosidase was adjusted to 1.88 AU/mL was added thereto in an amount of 50 μL and the whole was reacted at 55° C. at the total volume of 500 μL. To the reaction mixture was added 700 μL of ethanol after 0, 1, 3, and 6 hours of the reaction. After stirring and ultrasonication, the mixture was subjected to centrifugal separation at 15,000 rpm and 4° C. for 10 minutes. The supernatant was filtered through a filter and the existence of isoflavone glycosides and aglycon isoflavones contained in the reaction mixture was detected by HLPC (Tables 15 to 26).

[1] = pH6.6, heat treatment of enzyme: no, reaction time 0 h
[2] = pH6.6, heat treatment of enzyme: no, reaction time 1 h
[3] = pH6.6, heat treatment of enzyme: no, reaction time 3 h
[4] = pH6.6, heat treatment of enzyme: no, reaction time 6 h
[5] = pH6.6, heat treatment of enzyme: yes, reaction time 6 h

SMILES: CC(=O)OC[C@H]1O[C@@H](Oc2ccc3c(=O)c(-c4ccc(O)cc4)coc3c2)[C@H](O)[C@@H](O)[C@@H]1O [acetyldaidzin, 6″-O-acetyldaidzin]
- Decomposition efficiency of daidzin family in roasted soy flour (pH5, heat treatment of enzyme no, reaction time 0 h): 47.7
- Decomposition efficiency of daidzin family in roasted soy flour (pH5, heat treatment of enzyme no, reaction time 1 h): 38.5
- Decomposition efficiency of daidzin family in roasted soy flour (pH5, heat treatment of enzyme no, reaction time 3 h): 24.7
- Decomposition efficiency of daidzin family in roasted soy flour (pH5, heat treatment of enzyme no, reaction time 6 h): 15.2
- Decomposition efficiency of daidzin family in roasted soy flour (pH5, heat treatment of enzyme yes, reaction time 6 h): 45.0
- Decomposition efficiency of daidzin family in concentrated soybean protein (pH5.1, heat treatment of enzyme: no, reaction time 0 h): 44.6%
- Decomposition efficiency of daidzin family in concentrated soybean protein (pH5.1, heat treatment of enzyme: no, reaction time 1 h): 43.4%
- Decomposition efficiency of daidzin family in concentrated soybean protein (pH5.1, heat treatment of enzyme: no, reaction time 3 h): 37.0%
- Decomposition efficiency of daidzin family in concentrated soybean protein (pH5.1, heat treatment of enzyme: no, reaction time 6 h): 31.2%
- Decomposition efficiency of daidzin family in concentrated soybean protein (pH5.1, heat treatment of enzyme: yes, reaction time 6 h): 43.4%
- Decomposition efficiency of daidzin family in defatted soybean (pH5.4, heat treatment of enzyme: no, reaction time 0 h): not detected
- Decomposition efficiency of daidzin family in defatted soybean (pH5.4, heat treatment of enzyme: no, reaction time 1 h): not detected
- Decomposition efficiency of daidzin family in defatted soybean (pH5.4, heat treatment of enzyme: no, reaction time 3 h): not detected
- Decomposition efficiency of daidzin family in defatted soybean (pH5.4, heat treatment of enzyme: no, reaction time 6 h): not detected
- Decomposition efficiency of daidzin family in defatted soybean (pH5.4, heat treatment of enzyme: yes, reaction time 6 h): not detected
- Decomposition efficiency of daidzin family in soymilk (pH6.2, heat treatment of enzyme: no, reaction time 0 h): not detected
- Decomposition efficiency of daidzin family in soymilk (pH6.2, heat treatment of enzyme: no, reaction time 1 h): not detected
- Decomposition efficiency of daidzin family in soymilk (pH6.2, heat treatment of enzyme: no, reaction time 3 h): not detected
- Decomposition efficiency of daidzin family in soymilk (pH6.2, heat treatment of enzyme: no, reaction time 6 h): not detected
- Decomposition efficiency of daidzin family in soymilk (pH6.2, heat treatment of enzyme: yes, reaction time 6 h): not detected
- Decomposition efficiency of daidzin family in roasted soy flour (pH6.5, heat treatment of enzyme no, reaction time 0 h): 48.2
- Decomposition efficiency of daidzin family in roasted soy flour (pH6.5, heat treatment of enzyme no, reaction time 1 h): 45.4
- Decomposition efficiency of daidzin family in roasted soy flour (pH6.5, heat treatment of enzyme no, reaction time 3 h): 39.2
- Decomposition efficiency of daidzin family in roasted soy flour (pH6.5, heat treatment of enzyme no, reaction time 6 h): 34.4
- Decomposition efficiency of daidzin family in roasted soy flour (pH6.5, heat treatment of enzyme yes, reaction time 6 h): 43.4
- Decomposition efficiency of daidzin family in concentrated soybean protein [1]: 44.8%
- Decomposition efficiency of daidzin family in defatted soybean [1]: not detected
- Decomposition efficiency of daidzin family in concentrated soybean protein [2]: 43.9%
- Decomposition efficiency of daidzin family in defatted soybean [2]: not detected
- Decomposition efficiency of daidzin family in concentrated soybean protein [3]: 42.9%
- Decomposition efficiency of daidzin family in defatted soybean [3]: not detected
- Decomposition efficiency of daidzin family in concentrated soybean protein [4]: 41.2%
- Decomposition efficiency of daidzin family in defatted soybean [4]: not detected
- Decomposition efficiency of daidzin family in concentrated soybean protein [5]: 41.8%
- Decomposition efficiency of daidzin family in defatted soybean [5]: not detected
- Decomposition efficiency of daidzin family in soymilk (pH7.2, heat treatment of enzyme: no, reaction time 0 h): not detected
- Decomposition efficiency of daidzin family in soymilk (pH7.2, heat treatment of enzyme: no, reaction time 1 h): not detected
- Decomposition efficiency of daidzin family in soymilk (pH7.2, heat treatment of enzyme: no, reaction time 3 h): not detected
- Decomposition efficiency of daidzin family in soymilk (pH7.2, heat treatment of enzyme: no, reaction time 6 h): not detected
- Decomposition efficiency of daidzin family in soymilk (pH7.2, heat treatment of enzyme: yes, reaction time 6 h): not detected
- Decomposition efficiency of daidzin family in defatted soybean (pH7.8, heat treatment of enzyme: no, reaction time 0 h): not detected
- Decomposition efficiency of daidzin family in defatted soybean (pH7.8, heat treatment of enzyme: no, reaction time 1 h): not detected
- Decomposition efficiency of daidzin family in defatted soybean (pH7.8, heat treatment of enzyme: no, reaction time 3 h): not detected
- Decomposition efficiency of daidzin family in defatted soybean (pH7.8, heat treatment of enzyme: no, reaction time 6 h): not detected
- Decomposition efficiency of daidzin family in defatted soybean (pH7.8, heat treatment of enzyme: yes, reaction time 6 h): not detected
- Decomposition efficiency of daidzin family in roasted soy flour (pH8.5, heat treatment of enzyme no, reaction time 0 h): 42.1
- Decomposition efficiency of daidzin family in roasted soy flour (pH8.5, heat treatment of enzyme no, reaction time 1 h): 42.7
- Decomposition efficiency of daidzin family in roasted soy flour (pH8.5, heat treatment of enzyme no, reaction time 3 h): 40.3
- Decomposition efficiency of daidzin family in roasted soy flour (pH8.5, heat treatment of enzyme no, reaction time 6 h): 38.0
- Decomposition efficiency of daidzin family in roasted soy flour (pH8.5, heat treatment of enzyme yes, reaction time 6 h): 37.3
- Decomposition efficiency of daidzin family in concentrated soybean protein (pH8.6, heat treatment of enzyme: no, reaction time 0 h): 40.7%
- Decomposition efficiency of daidzin family in concentrated soybean protein (pH8.6, heat treatment of enzyme: no, reaction time 1 h): 39.2%
- Decomposition efficiency of daidzin family in concentrated soybean protein (pH8.6, heat treatment of enzyme: no, reaction time 3 h): 39.0%
- Decomposition efficiency of daidzin family in concentrated soybean protein (pH8.6, heat treatment of enzyme: no, reaction time 6 h): 38.1%
- Decomposition efficiency of daidzin family in concentrated soybean protein (pH8.6, heat treatment of enzyme: yes, reaction time 6 h): 37.7%
- Decomposition efficiency of daidzin family in soymilk (pH11.6, heat treatment of enzyme: no, reaction time 0 h): not detected
- Decomposition efficiency of daidzin family in soymilk (pH11.6, heat treatment of enzyme: no, reaction time 1 h): not detected
- Decomposition efficiency of daidzin family in soymilk (pH11.6, heat treatment of enzyme: no, reaction time 3 h): not detected
- Decomposition efficiency of daidzin family in soymilk (pH11.6, heat treatment of enzyme: no, reaction time 6 h): not detected
- Decomposition efficiency of daidzin family in soymilk (pH11.6, heat treatment of enzyme: yes, reaction time 6 h): not detected
